Tested on: de novo fatty acid synthesis
Test: Lipid metabolite profile of plasma, heart, liver and inguinal adipose of CL316,243-treated mice (trial 2; Tables 7 and 8)
Format: in vivo
Details: Liver, mean
Source text: It is understood that the described methods can be used to analyze lipid metabolites from other subjects, including particularly animals other than mice.
Mouse tissue and plasma samples were a generous donation to Lipomics Technologies, Inc., from Dr. Edward Leiter of the Jackson Laboratory (Bar Harbor, Me.). Samples included the plasma, heart, liver and inguinal adipose of mice treated with pharmaceuticals or their corresponding controls.
In trial 2, male, inbred NON mice were fed a control with or without the presence of the β-3 adrenergic agonist CL316,243 for four weeks (at 0.001% CL316,243 by weight in the dietary chow).
In both studies, five treated and five control mice were used. Following the treatments and the killing of the mice, tissues and plasma were taken, chilled to −80 ° C. and shipped to the analysis laboratory at Lipomics Technologies in a frozen state.
Tissue processing and lipid extraction, including provision of internal standards, was carried out essentially as described in Watkins et al. (J. Lipid Res. Papers in Press, 10.1184/jlf.M200169-JLF200, published August 16, 2002), and in co-owned international application PCT/US02/21426, entitled “GENERATING, VIEWING, INTERPRETING, AND UTILIZING A QUANTITATIVE DATABASE OF METABOLITES,” both of which are incorporated in their entirety herein by reference.
The separation of lipid classes was performed in some instance by preparative thin-layer chromatography (TLC). To remove any residual metal or other damaging contaminants on the TLC plates, each plate was washed prior to use. Washing the plates is a three-step process that involves impregnating each plate with ethylenediamine tetraacetic acid (EDTA) and rinsing the plates once with methanol and once with chloroform. Each plate is first impregnated with 1 mM EDTA, pH 5.5, by ascending development using the method of Ruiz (J. Lipid Res. 38, 1482-1489, 1997). After each plate was completely developed, it was dried in air overnight. Once dry, each plate was developed in methanol, dried, and developed in chloroform in the same direction as the development with EDTA. The washed plates were then dried in air. Just prior to use, each plate was activated by heating to 110° C. for 10 minutes.
To prepare the TLC chamber for chromatography, Whatman (Clifton, N.J.) filter paper was cut into 20×80-cm strips and wrapped around the inside wall of a 30×60×10-cm glass development chamber. One hundred milliliters of the appropriate mobile phase was added to the chamber, and the chambers were sealed and allowed to equilibrate. Chambers were considered equilibrated when the solvent front had completely ascended the filter paper. The mobile phase employed for the separation of phospholipid classes (lyso-phospholipids, sphingomyelin, phosphatidylcholine, phosphatidylserine, phosphatidylethanolamine and cardiolipin) was a modification of the solvent system described by Holub and Skeaf (“Nutritional regulation of cellular phosphatidylinositol,” in Methods in Enzymology, ed. Conn, P. M. (Academic Press, Inc., Orlando), pp. 234-243, 1987) consisting of chloroform/methanol/acetic acid/water (100:67:7:4, by volume).
For the separation of neutral lipid classes (free fatty acids, free sterols, triacylglycerides and cholesterol esters), a solvent system consisting of petroleum ether/diethyl ether/acetic acid (80:20:1, by volume) was used (Mangold, Thin Layer Chromatography—A Laboratory Handbook (Springer-Verlag, New York), 1969).
After the TLC plate was activated, the sample extracts were spotted onto the activated plate. As a general rule, samples were spotted at an estimated concentration such that no single lipid class was present at more than 25 jig per centimeter of plate width following chromatography. This ensured that the plate was not overloaded and minimized the risk of cross-contamination between lipid classes (cross-contamination is readily identified during sample analysis as each lipid class contains unique internal standards). […]

SMILES: C[C@H](Cc1ccc2c(c1)OC(C(=O)[O-])(C(=O)[O-])O2)NC[C@H](O)c1cccc(Cl)c1.[Na+].[Na+] [CL316,243]
- Total nMole of FA (FFA): 9555.8 nanomoles per gram
- 14:0 (PC): 69.0 nanomoles per gram
- 16:0 (PC): 11221.7 nanomoles per gram
- 16:1n7 (PC): 358.8 nanomoles per gram
- 18:0 (PC): 5889.5 nanomoles per gram
- 18:1n7 (PC): 741.3 nanomoles per gram
- 18:1n9 (PC): 3855.0 nanomoles per gram
- Saturates (PC): 17292.7 nanomoles per gram
- Total n7 (PC): 1100.1 nanomoles per gram
- Total n9 (PC): 3964.0 nanomoles per gram
- Total nMole of FA (PC): 19052.2 nanomoles per gram
- 14:0 (PE): 13.1 nanomoles per gram
- 16:0 (PE): 4406.0 nanomoles per gram
- 16:1n7 (PE): 117.9 nanomoles per gram
- 18:0 (PE): 3777.4 nanomoles per gram
- 18:1n7 (PE): 247.4 nanomoles per gram
- 18:1n9 (PE): 1320.6 nanomoles per gram
- Saturates (PE): 8245.4 nanomoles per gram
- Total n7 (PE): 365.3 nanomoles per gram
- Total n9 (PE): 1376.1 nanomoles per gram
- Total nMole of FA (PE): 9924.9 nanomoles per gram
- 14:0 (PL): 91.0 nanomoles per gram
- 16:0 (PL): 16120.7 nanomoles per gram
- 16:1n7 (PL): 586.5 nanomoles per gram
- 18:0 (PL): 12438.5 nanomoles per gram
- 18:1n7 (PL): 1242.7 nanomoles per gram
- 18:1n9 (PL): 5839.1 nanomoles per gram
- Saturates (PL): 29247.6 nanomoles per gram
- Total n7 (PL): 1829.2 nanomoles per gram
- Total n9 (PL): 6261.0 nanomoles per gram
- Total nMole of FA (PL): 34731.4 nanomoles per gram
- 14:0 (PS/I): 19.9 nanomoles per gram
- 16:0 (PS/I): 898.1 nanomoles per gram
- 16:1n7 (PS/I): 37.8 nanomoles per gram
- 18:0 (PS/I): 4313.9 nanomoles per gram
- 18:1n7 (PS/I): 100.2 nanomoles per gram
- 18:1n9 (PS/I): 486.8 nanomoles per gram
- Saturates (PS/I): 5283.6 nanomoles per gram
- Total n7 (PS/I): 138.0 nanomoles per gram
- Total n9 (PS/I): 607.6 nanomoles per gram
- Total nMole of FA (PS/I): 5625.0 nanomoles per gram
- 14:0 (TAG): 207.9 nanomoles per gram
- 16:0 (TAG): 6580.5 nanomoles per gram
- 16:1n7 (TAG): 675.6 nanomoles per gram
- 18:0 (TAG): 668.7 nanomoles per gram
- 18:1n7 (TAG): 619.4 nanomoles per gram
- 18:1n9 (TAG): 7123.9 nanomoles per gram
- Saturates (TAG): 7585.2 nanomoles per gram
- Total n7 (TAG): 1295.0 nanomoles per gram
- Total n9 (TAG): 7280.9 nanomoles per gram
- Total nMole of FA (TAG): 6910.6 nanomoles per gram
- 14:0 (lipid class CE): 2.5 percentage of total fatty acids
- 16:0 (lipid class CE): 27.3 percentage of total fatty acids
- 16:1n7 (lipid class CE): 4.9 percentage of total fatty acids
- 18:0 (lipid class CE): 7.1 percentage of total fatty acids
- 18:1n7 (lipid class CE): 1.8 percentage of total fatty acids
- 18:1n9 (lipid class CE): 25.4 percentage of total fatty acids
- Saturates (lipid class CE): 39.0 percentage of total fatty acids
- Total (lipid class CE): 100.0 percentage of total fatty acids
- Total n7 (lipid class CE): 6.7 percentage of total fatty acids
- Total n9 (lipid class CE): 26.9 percentage of total fatty acids
- 14:0 (lipid class CL): 0.4 percentage of total fatty acids
- 16:0 (lipid class CL): 4.9 percentage of total fatty acids
- 16:1n7 (lipid class CL): 1.5 percentage of total fatty acids
- 18:0 (lipid class CL): 4.7 percentage of total fatty acids
- 18:1n7 (lipid class CL): 4.4 percentage of total fatty acids
- 18:1n9 (lipid class CL): 8.7 percentage of total fatty acids
- Saturates (lipid class CL): 10.4 percentage of total fatty acids
- Total (lipid class CL): 25.0 percentage of total fatty acids
- Total n7 (lipid class CL): 5.9 percentage of total fatty acids
- Total n9 (lipid class CL): 9.4 percentage of total fatty acids
- 14:0 (lipid class FFA): 1.6 percentage of total fatty acids
- 16:0 (lipid class FFA): 24.0 percentage of total fatty acids
- 16:1n7 (lipid class FFA): 3.9 percentage of total fatty acids
- 18:0 (lipid class FFA): 4.9 percentage of total fatty acids
- 18:1n7 (lipid class FFA): 2.8 percentage of total fatty acids
- 18:1n9 (lipid class FFA): 23.7 percentage of total fatty acids
- Saturates (lipid class FFA): 31.2 percentage of total fatty acids
- Total (lipid class FFA): 100.0 percentage of total fatty acids
- Total n7 (lipid class FFA): 6.7 percentage of total fatty acids
- Total n9 (lipid class FFA): 24.2 percentage of total fatty acids
- 14:0 (lipid class PC): 0.2 percentage of total fatty acids
- 16:0 (lipid class PC): 29.4 percentage of total fatty acids
- 16:1n7 (lipid class PC): 0.9 percentage of total fatty acids
- 18:0 (lipid class PC): 15.5 percentage of total fatty acids
- 18:1n7 (lipid class PC): 1.9 percentage of total fatty acids
- 18:1n9 (lipid class PC): 10.1 percentage of total fatty acids
- Saturates (lipid class PC): 45.4 percentage of total fatty acids
- Total (lipid class PC): 50.0 percentage of total fatty acids
- Total n7 (lipid class PC): 2.9 percentage of total fatty acids
- Total n9 (lipid class PC): 10.4 percentage of total fatty acids
- 14:0 (lipid class PE): 0.1 percentage of total fatty acids
- 16:0 (lipid class PE): 22.2 percentage of total fatty acids
- 16:1n7 (lipid class PE): 0.6 percentage of total fatty acids
- 18:0 (lipid class PE): 19.1 percentage of total fatty acids
- 18:1n7 (lipid class PE): 1.2 percentage of total fatty acids
- 18:1n9 (lipid class PE): 6.6 percentage of total fatty acids
- Saturates (lipid class PE): 41.5 percentage of total fatty acids
- Total (lipid class PE): 50.0 percentage of total fatty acids
- Total n7 (lipid class PE): 1.8 percentage of total fatty acids
- Total n9 (lipid class PE): 6.9 percentage of total fatty acids
- 14:0 (lipid class PL): 0.1 percentage of total fatty acids
- 16:0 (lipid class PL): 23.2 percentage of total fatty acids
- 16:1n7 (lipid class PL): 0.8 percentage of total fatty acids
- 18:0 (lipid class PL): 17.9 percentage of total fatty acids
- 18:1n7 (lipid class PL): 1.8 percentage of total fatty acids
- 18:1n9 (lipid class PL): 8.4 percentage of total fatty acids
- Saturates (lipid class PL): 42.1 percentage of total fatty acids
- Total (lipid class PL): 50.0 percentage of total fatty acids
- Total n7 (lipid class PL): 2.6 percentage of total fatty acids
- Total n9 (lipid class PL): 9.0 percentage of total fatty acids
- 14:0 (lipid class PS/I): 0.2 percentage of total fatty acids
- 16:0 (lipid class PS/I): 8.0 percentage of total fatty acids
- 16:1n7 (lipid class PS/I): 0.3 percentage of total fatty acids
- 18:0 (lipid class PS/I): 38.4 percentage of total fatty acids
- 18:1n7 (lipid class PS/I): 0.9 percentage of total fatty acids
- 18:1n9 (lipid class PS/I): 4.3 percentage of total fatty acids
- Saturates (lipid class PS/I): 47.0 percentage of total fatty acids
- Total (lipid class PS/I): 50.0 percentage of total fatty acids
- Total n7 (lipid class PS/I): 1.2 percentage of total fatty acids
